Earlier results, collected in patent publication US7772228B2, “Method for treatment of bacterial infections with once or twice-weekly administered rifalazil” (priority 1998, dated 2010).

Tested on: M. tuberculosis
Conditions: depending on the degree of resistance to rifampin; cited from earlier work

SMILES: CO[C@H]1/C=C/O[C@@]2(C)Oc3c(C)c(O)c4c(O)c(c(/C=N/N5CCN(C)CC5)c(O)c4c3C2=O)NC(=O)/C(C)=C\C=C\[C@H](C)[C@H](O)[C@@H](C)[C@@H](O)[C@@H](C)[C@H](OC(C)=O)[C@@H]1C [Rifampin, rifampin, reference compound]
- MICs for MTB, range: <0.002 to 4.0 µg/mL
